Test results taken from patent US20260071220A1, “CONJUGATE OF NUCLEOTIDE ANALOG-CONTAINING DOUBLE-STRANDED RNAI ANALOG” (BaseCure Therapeutics LLC, priority 2022, published 2026).
In the oligonucleotide strings, read from the 5' end, every base follows the letter of its sugar. An asterisk marks phosphorothioate; unmarked linkages are phosphodiester. Other units and linkages are bracketed, terminal groups are in braces. A string of capitals states the bases alone. {D01} = GalNAc ligand D01, attached to sense strand by a phosphodiester bond; m = 2'-O-methyl; f = 2'-fluoro

Assays:
[1] = molecular target: T1, hTLR8 (Homo sapiens, UniProt Q9NR97); assay: Agonistic activity on hTLR8 cells (HEK BLUE, QUANTI-Blue OD650); assay type: cell-based; details: 24 h, transfection with RNAiMAX, maximum concentration 200 nM
T1 construct: host or cells: HEK BLUE hTLR8 (HEK293-derived SEAP reporter line)
T1 sequence (Q9NR97 27-1041): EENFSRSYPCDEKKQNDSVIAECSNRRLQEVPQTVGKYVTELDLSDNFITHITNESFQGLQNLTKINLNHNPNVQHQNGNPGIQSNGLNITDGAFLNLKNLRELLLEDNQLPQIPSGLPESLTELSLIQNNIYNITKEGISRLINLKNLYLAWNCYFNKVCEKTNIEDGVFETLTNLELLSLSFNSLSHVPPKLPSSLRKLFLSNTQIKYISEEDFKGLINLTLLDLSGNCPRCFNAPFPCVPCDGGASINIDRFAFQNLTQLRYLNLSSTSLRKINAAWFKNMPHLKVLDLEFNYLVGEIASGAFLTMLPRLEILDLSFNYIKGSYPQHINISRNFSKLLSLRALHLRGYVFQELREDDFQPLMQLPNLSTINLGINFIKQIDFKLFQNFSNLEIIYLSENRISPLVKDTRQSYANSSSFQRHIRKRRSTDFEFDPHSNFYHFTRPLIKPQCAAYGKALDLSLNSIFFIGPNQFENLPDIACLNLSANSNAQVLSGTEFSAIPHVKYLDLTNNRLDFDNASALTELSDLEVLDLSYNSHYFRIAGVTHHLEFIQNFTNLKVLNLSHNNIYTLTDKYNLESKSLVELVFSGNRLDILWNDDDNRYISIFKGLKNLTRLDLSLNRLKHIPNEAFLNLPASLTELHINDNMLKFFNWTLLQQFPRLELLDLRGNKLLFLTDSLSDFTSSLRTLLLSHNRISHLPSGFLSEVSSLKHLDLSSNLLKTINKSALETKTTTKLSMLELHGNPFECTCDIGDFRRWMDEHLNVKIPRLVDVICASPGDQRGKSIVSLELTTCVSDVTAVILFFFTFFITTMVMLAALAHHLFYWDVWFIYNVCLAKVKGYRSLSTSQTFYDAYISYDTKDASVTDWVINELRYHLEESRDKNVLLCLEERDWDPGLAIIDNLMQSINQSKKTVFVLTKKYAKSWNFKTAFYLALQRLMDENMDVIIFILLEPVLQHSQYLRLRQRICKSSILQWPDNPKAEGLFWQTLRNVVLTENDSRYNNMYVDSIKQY
Experimental: (§1) 1) The conjugate of the present invention was diluted to a concentration that was 20 times a final concentration, the diluted conjugate was mixed with RNAiMAX-OPTI MEM (RNAiMAX:OPTI MEM=3:47) at a ratio of 1:1 and incubated for 15 min at room temperature.
(§2) 2) 10 μL of incubated conjugate of the present invention was added into a corresponding cell plate, with 10 concentrations in total, a maximum concentration being 200 nM, and double duplicated wells for each concentration.
(§3) 10 μL of 0.5 μM BLOCK-iT™ Alexa Fluor® Red Fluorescent Control was added into 2 transfection positive control wells.
4) 90 μL of cells were seeded into a 96-well plate with the conjugate at the density of 50,000 cells/well. […]
(§4) 7) Compound activity detection: 20 μL of cell supernatant was taken from each well and added into an experimental plate containing 180 μL of QUANTI-Blue™ reagent and then incubated for 1 h at 37° C., followed by detecting an absorbance values at 650 nm (OD650) using the multifunctional microplate reader Flexstation III.
Compound activity: the OD650 values were analyzed using GraphPad Prism software, and a dose effect curve of the compound was fit, and the EC50 value of the compound was calculated. […] The cell activity % value was analyzed using GraphPadPrism software, the dose effect curve of the compound was fit, and the CC50 value of the compound on cell was calculated.

[2] = molecular target: T2, hTLR3 (Homo sapiens, UniProt O15455); assay: Agonistic activity on hTLR3 cells (HEK BLUE, QUANTI-Blue OD650); assay type: cell-based; details: 24 h, transfection with RNAiMAX, maximum concentration 200 nM, read-out: EC50
T2 construct: host or cells: HEK BLUE hTLR3 (HEK293-derived SEAP reporter line)
T2 sequence (O15455 24-904): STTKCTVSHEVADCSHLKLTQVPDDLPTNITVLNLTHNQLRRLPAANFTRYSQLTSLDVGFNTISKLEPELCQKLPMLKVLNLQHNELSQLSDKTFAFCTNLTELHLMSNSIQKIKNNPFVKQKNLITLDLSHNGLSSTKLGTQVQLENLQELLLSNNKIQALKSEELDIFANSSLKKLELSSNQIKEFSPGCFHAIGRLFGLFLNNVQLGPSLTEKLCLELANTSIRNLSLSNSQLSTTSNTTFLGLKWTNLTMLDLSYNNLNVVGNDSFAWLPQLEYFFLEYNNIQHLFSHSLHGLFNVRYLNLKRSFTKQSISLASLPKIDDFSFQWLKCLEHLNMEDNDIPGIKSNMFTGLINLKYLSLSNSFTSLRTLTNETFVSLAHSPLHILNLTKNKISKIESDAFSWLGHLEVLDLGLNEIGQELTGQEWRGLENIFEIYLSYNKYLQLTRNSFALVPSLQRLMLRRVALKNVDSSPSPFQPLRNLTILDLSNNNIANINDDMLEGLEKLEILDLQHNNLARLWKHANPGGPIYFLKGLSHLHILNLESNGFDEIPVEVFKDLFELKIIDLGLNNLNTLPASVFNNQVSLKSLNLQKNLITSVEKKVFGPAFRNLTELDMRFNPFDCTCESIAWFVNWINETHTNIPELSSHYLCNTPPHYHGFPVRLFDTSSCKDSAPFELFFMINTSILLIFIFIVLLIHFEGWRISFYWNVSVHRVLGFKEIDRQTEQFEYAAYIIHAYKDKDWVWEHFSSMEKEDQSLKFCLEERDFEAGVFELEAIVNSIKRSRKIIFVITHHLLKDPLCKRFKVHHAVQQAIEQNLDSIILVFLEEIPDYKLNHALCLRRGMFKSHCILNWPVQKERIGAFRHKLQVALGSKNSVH
Experimental: as §1, §2, §3
4) 90 μL of cells were seeded into a 96-well plate with the conjugate at the density of 50,000 cells/well.
5) The conjugate of the present invention and the cells were co-incubated for 24 h in an incubator under the conditions of 37° C. and 5% CO2.
as §4
Compound activity: the OD650 values were analyzed using GraphPad Prism software, and a dose effect curve of the compound was fit, and the EC50 value of the compound was calculated. Cell activity detection: the calculation formula of cell activity % was as follows. The cell activity % value was analyzed using GraphPadPrism software, the dose effect curve of the compound was fit, and the CC50 value of the compound on cell was calculated.

Substance | EC50 [1] [nM] | EC50 [2] [nM]
Conjugate 2: Double-stranded RNAi analog against AGT, D01 GalNAc ligand on sense strand; sense SEQ ID NO: 6, antisense SEQ ID NO: 2 containing Z (sense mA*mU*fCfCmAfCfAfAmUmGmAmGmAfGmUmAmCmA-{D01}; antisense CUCACAUGUACNCUCAUUGUGGAUGACGA; antisense: chemistry not given here; antisense strand modified, includes nucleotide analog Z, further chemistry not fully specified) | > 200 | > 200
Conjugate 3: Double-stranded RNAi analog against AGT, D01 GalNAc ligand on sense strand; sense SEQ ID NO: 7, antisense SEQ ID NO: 2 containing Z (sense mA*mU*fCfCmAfCfAfAmUmGmAfGmAmGmUmAmCmA-{D01}; antisense CUCACAUGUACNCUCAUUGUGGAUGACGA; antisense: chemistry not given here; antisense strand modified, includes nucleotide analog Z, further chemistry not fully specified) | > 200 | > 200
